Source: ChEMBL document CHEMBL4334471, “Discovery of 1,8-disubstituted-[1,2,3]triazolo[4,5-c]quinoline derivatives as a new class of Hippo signaling pathway inhibitors” (Bioorg Med Chem Lett, 2019)

How the values were obtained:
[1] = tested on: PI3-kinase p110-alpha/p85-alpha (Homo sapiens), P27986+P42336 [E542K]; assay: Inhibition of recombinant full-length human PI3K p110/p85 E542K mutant assessed as residual activity at 10 uM using phosphatidylinositol-4, 5-bisphosphate as substrate incubated for 40 mins in presence of [gamma33P]ATP by scintillation counting based radiometry assay relative to control
[2] = tested on: Macrophage colony-stimulating factor 1 receptor (Homo sapiens), P07333 [Y969C]; assay: Inhibition of recombinant human FMS Y969C mutant (538 to end residues) assessed as residual activity at 10 uM using EEEEYEEEEEEYYIIEEEEEEYEEEEEEYYEEEEEEKKKK as substrate at 40 mins in presence of [gamma-33ATP] by scintillation counting based radiometry assay relative to control
[3] = target: Dual specificity protein kinase CLK1 (Homo sapiens) (UniProt P49759); assay: Inhibition of recombinant human CLK1 (130 to end residues) assessed as residual activity at 10 uM using ERMRPRKRQGSVRRRV as substrate incubated 40 mins in presence of [gamma-33ATP] by scintillation counting based radiometry assay relative to control
[4] = target: Bone morphogenetic protein receptor type-1B (Homo sapiens) (UniProt O00238); assay: Inhibition of human ALK6 (148 to end residues) assessed as residual activity at 10 uM using casein as substrate incubated for 40 mins in presence of [gamma-33ATP] by scintillation counting based radiometry assay relative to control
Chain of Bone morphogenetic protein receptor type-1B (Homo sapiens) (O00238 whole entry): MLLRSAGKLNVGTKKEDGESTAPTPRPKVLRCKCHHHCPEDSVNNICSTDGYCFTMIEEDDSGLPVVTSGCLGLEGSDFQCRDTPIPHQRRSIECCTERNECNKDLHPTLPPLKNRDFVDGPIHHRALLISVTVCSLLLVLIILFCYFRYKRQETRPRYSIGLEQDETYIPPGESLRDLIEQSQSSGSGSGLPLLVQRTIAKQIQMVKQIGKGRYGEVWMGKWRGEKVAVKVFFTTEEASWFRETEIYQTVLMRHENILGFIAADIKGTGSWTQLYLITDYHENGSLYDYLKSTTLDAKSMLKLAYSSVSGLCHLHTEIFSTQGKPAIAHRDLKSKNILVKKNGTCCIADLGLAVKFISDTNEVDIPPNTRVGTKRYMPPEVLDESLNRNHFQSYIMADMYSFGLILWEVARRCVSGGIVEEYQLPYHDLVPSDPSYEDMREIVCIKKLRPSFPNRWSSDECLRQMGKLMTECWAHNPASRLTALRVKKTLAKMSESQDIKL

[5] = target: Serine/threonine-protein kinase mTOR (Homo sapiens) (UniProt P42345); assay: Inhibition of recombinant full length human mTOR assessed as residual activity at 10 uM measured after 40 mins in presence of [gamma33P]ATP by scintillation counting based radiometry assay relative to control
[6] = target: cGMP-dependent protein kinase 2 (Homo sapiens) (UniProt Q13237); assay: Inhibition of recombinant full-length human PRKG2 assessed as residual activity at 10 uM using KKLRRTLSFAEPG as substrate incubated for 40 mins in presence of [gamma33P]ATP by scintillation counting based radiometry assay relative to control
Chain of cGMP-dependent protein kinase 2 (Homo sapiens) (Q13237 whole entry, the tested form may be a part): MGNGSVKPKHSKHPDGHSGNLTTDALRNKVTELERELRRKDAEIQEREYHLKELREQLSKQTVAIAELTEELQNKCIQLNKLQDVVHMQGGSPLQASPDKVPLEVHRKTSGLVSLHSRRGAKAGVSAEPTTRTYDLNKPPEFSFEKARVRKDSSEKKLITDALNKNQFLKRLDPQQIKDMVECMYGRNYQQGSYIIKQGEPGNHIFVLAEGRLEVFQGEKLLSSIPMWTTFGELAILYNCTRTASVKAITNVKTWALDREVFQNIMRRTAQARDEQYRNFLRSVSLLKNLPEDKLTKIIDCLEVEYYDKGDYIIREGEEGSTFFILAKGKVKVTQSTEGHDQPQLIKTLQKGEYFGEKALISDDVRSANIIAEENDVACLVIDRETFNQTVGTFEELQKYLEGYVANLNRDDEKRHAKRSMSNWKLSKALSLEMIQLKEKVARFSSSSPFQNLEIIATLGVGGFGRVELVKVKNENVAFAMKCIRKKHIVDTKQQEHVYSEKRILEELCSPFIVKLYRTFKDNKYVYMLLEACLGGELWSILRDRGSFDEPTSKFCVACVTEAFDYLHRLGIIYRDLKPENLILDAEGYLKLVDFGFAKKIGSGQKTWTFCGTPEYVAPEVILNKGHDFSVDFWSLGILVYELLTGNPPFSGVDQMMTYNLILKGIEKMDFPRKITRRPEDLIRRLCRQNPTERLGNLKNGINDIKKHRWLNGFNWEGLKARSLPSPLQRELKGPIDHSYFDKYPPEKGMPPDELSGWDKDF

[7] = target: Maternal embryonic leucine zipper kinase (Homo sapiens) (UniProt Q14680); assay: Inhibition of recombinant human MELK (1 to 340 residues) assessed as residual activity at 10 uM using KKLNRTLSFAEPG as substrate incubated for 40 mins in presence of [gamma-33ATP by scintillation counting based radiometry assay relative to control
[8] = target: Mast/stem cell growth factor receptor Kit (Homo sapiens) (UniProt P10721); assay: Inhibition of recombinant human C-Kit (544 to end residues) using poly(Glu, Tyr) 4:1 as substrate assessed as residual activity at 10 uM in presence of [gamma-33ATP] by scintillation counting based radiometry assay relative to control
Chain of Mast/stem cell growth factor receptor Kit (Homo sapiens) (P10721 whole entry): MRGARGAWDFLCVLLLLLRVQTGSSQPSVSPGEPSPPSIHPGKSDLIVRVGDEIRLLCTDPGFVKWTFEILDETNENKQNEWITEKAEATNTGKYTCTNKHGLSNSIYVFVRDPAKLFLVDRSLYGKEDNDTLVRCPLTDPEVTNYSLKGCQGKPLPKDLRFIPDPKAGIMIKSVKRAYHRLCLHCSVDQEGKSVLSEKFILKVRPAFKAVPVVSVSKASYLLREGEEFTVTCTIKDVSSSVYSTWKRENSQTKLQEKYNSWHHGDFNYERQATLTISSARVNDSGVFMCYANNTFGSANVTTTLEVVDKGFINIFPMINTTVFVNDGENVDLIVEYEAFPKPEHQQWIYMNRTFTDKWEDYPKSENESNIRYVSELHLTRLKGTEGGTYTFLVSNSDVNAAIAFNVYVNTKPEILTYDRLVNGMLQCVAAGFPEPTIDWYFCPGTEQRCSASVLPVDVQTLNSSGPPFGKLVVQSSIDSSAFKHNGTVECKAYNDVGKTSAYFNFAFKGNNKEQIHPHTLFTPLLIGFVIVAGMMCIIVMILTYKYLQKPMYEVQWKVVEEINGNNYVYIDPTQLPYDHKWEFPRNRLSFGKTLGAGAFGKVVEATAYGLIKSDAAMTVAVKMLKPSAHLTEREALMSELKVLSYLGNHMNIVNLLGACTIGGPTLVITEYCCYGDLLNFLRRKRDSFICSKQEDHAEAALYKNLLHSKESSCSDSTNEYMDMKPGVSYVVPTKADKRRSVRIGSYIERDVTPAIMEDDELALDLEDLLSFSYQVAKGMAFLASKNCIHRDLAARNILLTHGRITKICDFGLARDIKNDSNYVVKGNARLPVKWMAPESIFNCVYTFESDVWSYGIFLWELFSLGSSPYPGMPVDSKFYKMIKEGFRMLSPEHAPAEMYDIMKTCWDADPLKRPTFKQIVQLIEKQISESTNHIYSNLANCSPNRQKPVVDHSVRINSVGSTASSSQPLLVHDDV

A549 = assay: Upregulation of CYR61 in human A549 cells incubated for 24 hrs by qRT-PCR analysis; type: functional, cell-based
[9] = target: Serine/threonine-protein kinase Nek3 (Homo sapiens) (UniProt P51956); assay: Inhibition of recombinant full-length human NEK3 assessed as residual activity at 10 uM using myelin basic protein as substrate measured after 40 mins in presence of [gamma33P]ATP by scintillation counting based radiometry assay relative to control
Chain of Serine/threonine-protein kinase Nek3 (Homo sapiens) (P51956 whole entry): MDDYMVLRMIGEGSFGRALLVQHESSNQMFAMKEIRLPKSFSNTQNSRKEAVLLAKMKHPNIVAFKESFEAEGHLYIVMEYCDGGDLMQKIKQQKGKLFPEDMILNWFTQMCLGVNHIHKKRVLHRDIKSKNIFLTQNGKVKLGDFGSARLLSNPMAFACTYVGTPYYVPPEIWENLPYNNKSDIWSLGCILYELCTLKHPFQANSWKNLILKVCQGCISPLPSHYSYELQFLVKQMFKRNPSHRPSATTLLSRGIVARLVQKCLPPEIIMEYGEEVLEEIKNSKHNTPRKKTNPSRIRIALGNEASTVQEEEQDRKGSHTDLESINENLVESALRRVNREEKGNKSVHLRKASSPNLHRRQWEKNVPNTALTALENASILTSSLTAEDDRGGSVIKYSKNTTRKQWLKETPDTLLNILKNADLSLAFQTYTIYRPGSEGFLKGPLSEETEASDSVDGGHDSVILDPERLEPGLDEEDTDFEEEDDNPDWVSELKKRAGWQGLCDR

[10] = target: Tyrosine-protein kinase Fyn (Homo sapiens) (UniProt P06241); assay: Inhibition of recombinant full length human Fyn assessed as residual activity at 10 uM using KVEKIGEGTYGVV as substrate at 40 mins in presence of [gamma-33ATP] by scintillation counting based radiometry assay relative to control
[11] = target: Serine/threonine-protein kinase WNK3 (Homo sapiens) (UniProt Q9BYP7); assay: Inhibition of recombinant human WNK3 (1 to 434 residues) assessed as residual activity at 10 uM using myelin basic protein as substrate incubated for 40 mins in presence of [gamma33P]ATP by scintillation counting based radiometry assay relative to control
Chain of Serine/threonine-protein kinase WNK3 (Homo sapiens) (Q9BYP7 whole entry, the tested form may be a part): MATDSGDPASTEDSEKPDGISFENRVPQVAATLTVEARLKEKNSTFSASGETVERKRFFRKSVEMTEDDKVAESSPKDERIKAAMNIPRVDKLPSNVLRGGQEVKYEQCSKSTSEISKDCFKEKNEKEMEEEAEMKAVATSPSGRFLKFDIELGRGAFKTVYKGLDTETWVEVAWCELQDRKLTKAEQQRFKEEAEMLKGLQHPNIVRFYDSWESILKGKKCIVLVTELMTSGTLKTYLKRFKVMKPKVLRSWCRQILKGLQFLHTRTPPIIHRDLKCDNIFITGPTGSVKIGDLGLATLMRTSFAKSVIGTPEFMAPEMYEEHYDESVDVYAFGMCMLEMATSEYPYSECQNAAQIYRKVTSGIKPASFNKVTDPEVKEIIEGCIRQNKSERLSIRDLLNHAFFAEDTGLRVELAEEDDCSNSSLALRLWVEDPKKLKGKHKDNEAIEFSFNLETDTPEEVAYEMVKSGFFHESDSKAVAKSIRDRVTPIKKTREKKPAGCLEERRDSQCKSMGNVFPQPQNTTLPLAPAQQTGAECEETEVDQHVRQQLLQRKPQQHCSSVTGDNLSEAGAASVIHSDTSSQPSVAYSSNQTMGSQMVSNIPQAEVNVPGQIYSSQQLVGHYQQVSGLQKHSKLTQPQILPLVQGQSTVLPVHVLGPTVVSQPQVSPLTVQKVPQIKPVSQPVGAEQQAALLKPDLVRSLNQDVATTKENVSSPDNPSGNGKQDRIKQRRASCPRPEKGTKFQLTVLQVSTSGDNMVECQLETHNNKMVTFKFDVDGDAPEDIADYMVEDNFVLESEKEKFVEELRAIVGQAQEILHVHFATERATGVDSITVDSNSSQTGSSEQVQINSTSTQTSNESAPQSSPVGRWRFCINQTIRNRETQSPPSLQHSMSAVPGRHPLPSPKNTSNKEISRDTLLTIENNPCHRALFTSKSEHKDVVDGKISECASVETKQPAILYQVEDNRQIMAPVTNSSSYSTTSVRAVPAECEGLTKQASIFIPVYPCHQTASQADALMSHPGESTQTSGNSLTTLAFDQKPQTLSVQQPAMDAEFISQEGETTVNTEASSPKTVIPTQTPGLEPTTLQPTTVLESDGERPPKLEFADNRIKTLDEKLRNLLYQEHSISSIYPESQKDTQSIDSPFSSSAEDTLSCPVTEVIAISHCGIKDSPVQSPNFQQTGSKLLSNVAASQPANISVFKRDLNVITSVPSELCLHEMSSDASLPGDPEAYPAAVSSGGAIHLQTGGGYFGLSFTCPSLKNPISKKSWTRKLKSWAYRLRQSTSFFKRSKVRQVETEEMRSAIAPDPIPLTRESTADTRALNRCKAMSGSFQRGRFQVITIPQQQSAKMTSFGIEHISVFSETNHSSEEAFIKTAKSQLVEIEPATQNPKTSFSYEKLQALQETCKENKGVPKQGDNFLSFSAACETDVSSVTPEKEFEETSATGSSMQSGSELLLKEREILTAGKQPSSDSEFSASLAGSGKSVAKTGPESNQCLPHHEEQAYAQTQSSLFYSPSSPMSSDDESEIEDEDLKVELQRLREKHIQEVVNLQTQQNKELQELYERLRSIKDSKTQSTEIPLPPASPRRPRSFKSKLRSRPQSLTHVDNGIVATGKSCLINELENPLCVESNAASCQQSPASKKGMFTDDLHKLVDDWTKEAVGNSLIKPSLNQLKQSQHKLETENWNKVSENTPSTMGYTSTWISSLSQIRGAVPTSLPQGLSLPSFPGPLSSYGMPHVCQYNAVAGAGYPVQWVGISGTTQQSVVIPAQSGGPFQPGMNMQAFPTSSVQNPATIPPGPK

[12] = target: CDK3/Cyclin E (Homo sapiens) (UniProt P24864+Q00526); assay: Inhibition of recombinant full length human CDK3/CyclinE assessed as residual activity at 10 uM using Histone H1 as substrate incubated for 40 mins in presence of [gamma-33ATP] by scintillation counting based radiometry assay relative to control; type: protein-complex assay
[13] = target: 5'-AMP-activated protein kinase catalytic subunit alpha-1 (Homo sapiens) (UniProt Q13131); assay: Inhibition of recombinant full length human AMPKalpha1 assessed as residual activity at 10 uM using AMARAASAAALAR as substrate incubated for 40 mins in presence of [gamma-33ATP] by scintillation counting based radiometry assay relative to control
Chain of 5'-AMP-activated protein kinase catalytic subunit alpha-1 (Homo sapiens) (Q13131 whole entry, looked up, the tested form may be a part): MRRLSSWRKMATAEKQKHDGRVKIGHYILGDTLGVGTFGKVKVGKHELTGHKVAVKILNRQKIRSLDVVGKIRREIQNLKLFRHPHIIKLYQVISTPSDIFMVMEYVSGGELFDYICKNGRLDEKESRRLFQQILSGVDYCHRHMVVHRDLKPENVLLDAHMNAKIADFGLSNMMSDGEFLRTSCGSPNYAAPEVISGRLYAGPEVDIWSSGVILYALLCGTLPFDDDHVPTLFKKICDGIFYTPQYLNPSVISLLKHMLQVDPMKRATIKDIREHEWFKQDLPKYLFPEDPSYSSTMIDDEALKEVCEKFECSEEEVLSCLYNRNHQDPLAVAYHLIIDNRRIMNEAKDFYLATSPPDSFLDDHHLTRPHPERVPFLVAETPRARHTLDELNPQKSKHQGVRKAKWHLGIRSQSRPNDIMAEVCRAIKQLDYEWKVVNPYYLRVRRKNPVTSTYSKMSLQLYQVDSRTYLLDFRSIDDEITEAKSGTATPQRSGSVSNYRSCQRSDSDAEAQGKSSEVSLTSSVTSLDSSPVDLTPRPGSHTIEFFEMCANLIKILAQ

[14] = target: Serine/threonine-protein kinase SIK1 (Homo sapiens) (UniProt P57059); assay: Inhibition of recombinant human SIK (1 to 281 residues) assessed as residual activity at 10 uM using AMARAASAAALARRR as substrate incubated for 40 mins in presence of [gamma33P]ATP by scintillation counting based radiometry assay relative to control
[15] = target: Tyrosine-protein kinase ZAP-70 (Homo sapiens) (UniProt P43403); assay: Inhibition of recombinant full length human ZAP70 assessed as residual activity at 10 uM using poly(Glu, Tyr) 4:1 as substrate incubated for 40 mins in presence of [gamma33P]ATP by scintillation counting based radiometry assay relative to control
[16] = tested on: PI3-kinase p110-alpha/p85-alpha (Homo sapiens), P27986+P42336 [H1047R]; assay: Inhibition of recombinant full-length human PI3K p110/p85 H1047R mutant assessed as residual activity at 10 uM using phosphatidylinositol-4, 5-bisphosphate as substrate incubated for 40 mins in presence of [gamma33P]ATP by scintillation counting based radiometry assay relative to control
[17] = target: Platelet-derived growth factor receptor beta (Homo sapiens) (UniProt P09619); assay: Inhibition of human PDGFRbeta (557 to end residues) assessed as residual activity at 10 uM using poly(Glu, Tyr) 4:1 as substrate measured after 40 mins in presence of [gamma33P]ATP by scintillation counting based radiometry assay relative to control
Homo sapiens = organism: Homo sapiens; assay: Inhibition of recombinant human A-Raf Y301D/ Y302D mutant (273 to end residues) assessed as residual activity at 10 uM using myelin basic protein as substrate incubated for 40 mins in presence of [gamma-33ATP] by scintillation counting based radiometry assay relative to control
[18] = target: Serine/threonine-protein kinase 25 (Homo sapiens) (UniProt O00506); assay: Inhibition of recombinant human STK25 (1 to 308 residues) assessed as residual activity at 10 uM using RLGRDKYKTLRQIRQ as substrate incubated for 40 mins in presence of [gamma33P]ATP by scintillation counting based radiometry assay relative to control
[19] = tested on: Eukaryotic elongation factor 2 kinase (Homo sapiens), O00418 [H23R]; assay: Inhibition of recombinant human eEF-2K H23R mutant (2 to end residues) assessed as residual activity at 10 uM using RKKFGESEKTKTK as substrate at 40 mins in presence of [gamma-33ATP] by scintillation counting based radiometry assay relative to control

For `C[C@@H](c1ccccc1)n1nnc2cnc3ccc(-c4cnc5[nH]ccc5c4)cc3c21`, the Activity [1] was 8%, the Activity [2] was 52% and the Activity [3] was 38%. For the same compound, the Activity [4] was 93%, the Activity [5] was -7% and the Activity [6] was 52%. The Activity [7] was 25%, the Activity [8] was 103% and the Activity (A549) was “Dose-dependent effect”. For the same compound, the Activity [9] was 73%, the Activity [10] was 8% and the Activity [11] was 99%. It also gave an Activity [12] of 71%, an Activity [13] of 45% and an Activity [14] of 8%. For the same compound, the Activity [15] was 150%, the Activity [16] was 16% and the Activity [17] was 79%. The Activity (Homo sapiens) was 95%, the Activity [18] was 76% and the Activity [19] was 129%.
